Results: patent publication US12473250B2, “Molecular design of new antibiotics and antibiotic adjuvants against MCR strains” (priority 2019, dated 2025)

What was measured:
various pathogens = assay: organism not typed; assay type: cell-based
Outline: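 Broth microdilution MIC per CLSI: each agent alone and LC compound plus antibiotic (e.g. colistin) combined in equal amounts, serially diluted 2-fold at fixed synergy concentration.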

[1] = tested on: colistin resistant MCR (+) E. Coli strains; assay: MIC, broth microdilution, compound alone; assay type: cell-based; settings: for MIC: compound alone
Outline: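 Wells held ~5×10^5 CFU/mL of bacteria prepared to 0.5 McFarland from overnight TSA colonies and exposed to serially diluted agents, following modified CLSI microdilution. After 24 h at 35 °C, growth judged by turbidity (OD600 possible); 99% inhibition sets the MIC.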

[2] = 6093560257 [MCR 1+, E. Coli, NDM-1]
[3] = 7103531927 [MCR 1+, E. Coli, KPC+]
[4] = 7113636863 [MCR 1+, E. Coli, NDM-1]

CCN(CC)CCCCOc1ccc(/C=C/C(=O)c2ccc(OCCCCN(CC)CC)c(CC=C(C)C)c2O)cc1 [LC100]
100 µg/mL: MIC ([1]; strain 6075066346, MCR (+)) | MIC ([1]; strain 6083655967, MCR (+)) | MIC ([1]; strain 6103645107, MCR (+)) | MIC ([1]; strain 6123520276, MCR (+)) | MIC ([1]; strain 7013177695, MCR (+)) | MIC ([1]; strain 7023436560, MCR (+)) | MIC ([1]; strain 7028444207 (Table 1b), MCR (+))
no activity: antimicrobial activity when used alone ([1]; colistin resistant bacteria, in words)
✓: Pathogen sensitivity (✓/x), Colistin 0.5 μg+ LC100 1 μg (various pathogens; 6083655967 [MCR 1+, E. Coli]) | Pathogen sensitivity (✓/x), Colistin 0.5 μg+ LC100 2 μg (various pathogens; 6083655967 [MCR 1+, E. Coli]) | Pathogen sensitivity (✓/x), Colistin 1 μg+ LC100 1 μg (various pathogens; 6083655967 [MCR 1+, E. Coli]) | Pathogen sensitivity (✓/x), Colistin 1 μg+ LC100 2 μg (various pathogens; 6083655967 [MCR 1+, E. Coli]) | Pathogen sensitivity (✓/x), Colistin 0.5 μg+ LC100 1 μg (various pathogens; [2]) | Pathogen sensitivity (✓/x), Colistin 0.5 μg+ LC100 2 μg (various pathogens; [2]) | Pathogen sensitivity (✓/x), Colistin 1 μg+ LC100 1 μg (various pathogens; [2]) | Pathogen sensitivity (✓/x), Colistin 1 μg+ LC100 2 μg (various pathogens; [2]) | Pathogen sensitivity (✓/x), Colistin 0.5 μg+ LC100 1 μg (various pathogens; 6123520276 [MCR 1+, E. Coli]) | Pathogen sensitivity (✓/x), Colistin 0.5 μg+ LC100 2 μg (various pathogens; 6123520276 [MCR 1+, E. Coli]) | Pathogen sensitivity (✓/x), Colistin 1 μg+ LC100 1 μg (various pathogens; 6123520276 [MCR 1+, E. Coli]) | Pathogen sensitivity (✓/x), Colistin 1 μg+ LC100 2 μg (various pathogens; 6123520276 [MCR 1+, E. Coli]) | Pathogen sensitivity (✓/x), Colistin 0.5 μg+ LC100 1 μg (various pathogens; 7023436560 [MCR 1+, E. Coli]) | Pathogen sensitivity (✓/x), Colistin 0.5 μg+ LC100 2 μg (various pathogens; 7023436560 [MCR 1+, E. Coli]) | Pathogen sensitivity (✓/x), Colistin 1 μg+ LC100 1 μg (various pathogens; 7023436560 [MCR 1+, E. Coli]) | Pathogen sensitivity (✓/x), Colistin 1 μg+ LC100 2 μg (various pathogens; 7023436560 [MCR 1+, E. Coli]) | Pathogen sensitivity (✓/x), Colistin 0.5 μg+ LC100 1 μg (various pathogens; 7023444207 [MCR 1+, E. Coli]) | Pathogen sensitivity (✓/x), Colistin 0.5 μg+ LC100 2 μg (various pathogens; 7023444207 [MCR 1+, E. Coli]) | Pathogen sensitivity (✓/x), Colistin 1 μg+ LC100 1 μg (various pathogens; 7023444207 [MCR 1+, E. Coli]) | Pathogen sensitivity (✓/x), Colistin 1 μg+ LC100 2 μg (various pathogens; 7023444207 [MCR 1+, E. Coli]) | Pathogen sensitivity (✓/x), Colistin 0.5 μg+ LC100 1 μg (various pathogens; 7023446108 [MCR 1−, E. Coli]) | Pathogen sensitivity (✓/x), Colistin 0.5 μg+ LC100 2 μg (various pathogens; 7023446108 [MCR 1−, E. Coli]) | Pathogen sensitivity (✓/x), Colistin 1 μg+ LC100 1 μg (various pathogens; 7023446108 [MCR 1−, E. Coli]) | Pathogen sensitivity (✓/x), Colistin 1 μg+ LC100 2 μg (various pathogens; 7023446108 [MCR 1−, E. Coli]) | Pathogen sensitivity (✓/x), Colistin 0.5 μg+ LC100 1 μg (various pathogens; 7033607097 [MCR 1−, E. Coli]) | Pathogen sensitivity (✓/x), Colistin 0.5 μg+ LC100 2 μg (various pathogens; 7033607097 [MCR 1−, E. Coli]) | Pathogen sensitivity (✓/x), Colistin 1 μg+ LC100 1 μg (various pathogens; 7033607097 [MCR 1−, E. Coli]) | Pathogen sensitivity (✓/x), Colistin 1 μg+ LC100 2 μg (various pathogens; 7033607097 [MCR 1−, E. Coli]) | Pathogen sensitivity (✓/x), Colistin 0.5 μg+ LC100 1 μg (various pathogens; [3]) | Pathogen sensitivity (✓/x), Colistin 0.5 μg+ LC100 2 μg (various pathogens; [3]) | Pathogen sensitivity (✓/x), Colistin 1 μg+ LC100 1 μg (various pathogens; [3]) | Pathogen sensitivity (✓/x), Colistin 1 μg+ LC100 2 μg (various pathogens; [3]) | Pathogen sensitivity (✓/x), Colistin 0.5 μg+ LC100 1 μg (various pathogens; [4]) | Pathogen sensitivity (✓/x), Colistin 0.5 μg+ LC100 2 μg (various pathogens; [4]) | Pathogen sensitivity (✓/x), Colistin 1 μg+ LC100 1 μg (various pathogens; [4]) | Pathogen sensitivity (✓/x), Colistin 1 μg+ LC100 2 μg (various pathogens; [4]) | Pathogen sensitivity (✓/x), Colistin 0.5 μg+ LC100 1 μg (various pathogens; KLPN ATCC 10031) | Pathogen sensitivity (✓/x), Colistin 0.5 μg+ LC100 1 μg (various pathogens; KLPN CRE 15588) | Pathogen sensitivity (✓/x), Colistin 1 μg+ LC100 1 μg (various pathogens; KLPN CRE 15588) | Pathogen sensitivity (✓/x), Colistin 0.5 μg+ LC100 1 μg (various pathogens; KLPN CRE 16260) | Pathogen sensitivity (✓/x), Colistin 0.5 μg+ LC100 2 μg (various pathogens; KLPN CRE 16260) | Pathogen sensitivity (✓/x), Colistin 0.5 μg+ LC100 5 μg (various pathogens; KLPN CRE 16260) | Pathogen sensitivity (✓/x), Colistin 1 μg+ LC100 1 μg (various pathogens; KLPN CRE 16260) | Pathogen sensitivity (✓/x), Colistin 1 μg+ LC100 2 μg (various pathogens; KLPN CRE 16260) | Pathogen sensitivity (✓/x), Colistin 1 μg+ LC100 5 μg (various pathogens; KLPN CRE 16260) | Pathogen sensitivity (✓/x), Colistin 0.5 μg+ LC100 1 μg (various pathogens; PAE ATCC 15442) | Pathogen sensitivity (✓/x), Colistin 0.5 μg+ LC100 2 μg (various pathogens; PAE ATCC 15442) | Pathogen sensitivity (✓/x), Colistin 1 μg+ LC100 1 μg (various pathogens; PAE ATCC 15442) | Pathogen sensitivity (✓/x), Colistin 0.5 μg+ LC100 1 μg (various pathogens; PAE ATCC BAA-1744) | Pathogen sensitivity (✓/x), Colistin 0.5 μg+ LC100 2 μg (various pathogens; PAE ATCC BAA-1744) | Pathogen sensitivity (✓/x), Colistin 0.5 μg+ LC100 1 μg (various pathogens; PAE DM 4150) | Pathogen sensitivity (✓/x), Colistin 0.5 μg+ LC100 2 μg (various pathogens; PAE DM 4150) | Pathogen sensitivity (✓/x), Colistin 0.5 μg+ LC100 5 μg (various pathogens; PAE DM 4150) | Pathogen sensitivity (✓/x), Colistin 0.5 μg+ LC100 1 μg (various pathogens; PAE DM 23155) | Pathogen sensitivity (✓/x), Colistin 0.5 μg+ LC100 2 μg (various pathogens; PAE DM 23155) | Pathogen sensitivity (✓/x), Colistin 1 μg+ LC100 1 μg (various pathogens; PAE DM 23155) | Pathogen sensitivity (✓/x), Colistin 1 μg+ LC100 2 μg (various pathogens; PAE DM 23155) | Pathogen sensitivity (✓/x), Colistin 0.5 μg+ LC100 1 μg (various pathogens; PAE DM 23257) | Pathogen sensitivity (✓/x), Colistin 0.5 μg+ LC100 2 μg (various pathogens; PAE DM 23257) | Pathogen sensitivity (✓/x), Colistin 0.5 μg+ LC100 5 μg (various pathogens; PAE DM 23257) | Pathogen sensitivity (✓/x), Colistin 1 μg+ LC100 1 μg (various pathogens; PAE DM 23257) | Pathogen sensitivity (✓/x), Colistin 0.5 μg+ LC100 1 μg (various pathogens; PAE DM 23376) | Pathogen sensitivity (✓/x), Colistin 0.5 μg+ LC100 2 μg (various pathogens; PAE DM 23376) | Pathogen sensitivity (✓/x), Colistin 0.5 μg+ LC100 1 μg (various pathogens; PAE DR 5790) | Pathogen sensitivity (✓/x), Colistin 0.5 μg+ LC100 1 μg (various pathogens; PAE DU 14476) | Pathogen sensitivity (✓/x), Colistin 0.5 μg+ LC100 2 μg (various pathogens; PAE DU 14476) | Pathogen sensitivity (✓/x), Colistin 0.5 μg+ LC100 5 μg (various pathogens; PAE DU 14476) | Pathogen sensitivity (✓/x), Colistin 1 μg+ LC100 1 μg (various pathogens; PAE DU 14476)
